In patent publication EP0881220A1, “DIARYLSULTAM DERIVATIVES” (priority 1996, dated 1997):
Structures can show the parent of a compound that is named as a salt. Where two headings read alike, the source gives them in different places.

Key:
[1] = target: T1, Dopamine D2 (Rattus norvegicus, UniProt P61169); assay: Binding to dopaminergic receptors using rat striata (method of Terai et al.)
T1 construct: dopaminergic receptors was also measured using rat striata; from tissue; host or cells: rat striata
Protocol: The binding of these compounds to dopaminergic receptors was also measured using rat striata according to the method described by Terai et al. (M. Terai, et al., Eur. J. Pharmacol. 1989, 173, 177).

[2] = target: T2, sigma 1 binding site (Cavia porcellus, UniProt Q60492); assay: biochemical
[3] = target: T3, sigma 2 binding site (Rattus norvegicus, UniProt Q5U3Y7); assay: Sigma 2 selective receptor binding inhibition assay with [^3H]-di-o-tolylguanidine; conditions: for S2/S1 Ratio: ratio of Sigma 2 Ki to Sigma 1 Ki
T3 sequence (Q5U3Y7 1-176): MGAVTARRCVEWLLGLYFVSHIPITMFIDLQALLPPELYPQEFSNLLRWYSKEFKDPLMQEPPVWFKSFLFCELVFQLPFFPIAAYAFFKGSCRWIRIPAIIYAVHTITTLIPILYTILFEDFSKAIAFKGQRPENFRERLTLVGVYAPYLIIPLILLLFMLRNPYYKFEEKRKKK

[4] = target: T2, sigma 1 binding site

T2 sequence (Q60492 whole entry): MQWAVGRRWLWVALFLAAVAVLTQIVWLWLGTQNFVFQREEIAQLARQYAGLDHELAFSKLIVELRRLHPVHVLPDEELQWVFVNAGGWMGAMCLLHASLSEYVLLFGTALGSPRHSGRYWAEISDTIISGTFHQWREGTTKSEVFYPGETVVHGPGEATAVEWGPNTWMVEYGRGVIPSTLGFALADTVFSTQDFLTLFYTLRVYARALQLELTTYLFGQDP
T1 sequence (P61169 whole entry): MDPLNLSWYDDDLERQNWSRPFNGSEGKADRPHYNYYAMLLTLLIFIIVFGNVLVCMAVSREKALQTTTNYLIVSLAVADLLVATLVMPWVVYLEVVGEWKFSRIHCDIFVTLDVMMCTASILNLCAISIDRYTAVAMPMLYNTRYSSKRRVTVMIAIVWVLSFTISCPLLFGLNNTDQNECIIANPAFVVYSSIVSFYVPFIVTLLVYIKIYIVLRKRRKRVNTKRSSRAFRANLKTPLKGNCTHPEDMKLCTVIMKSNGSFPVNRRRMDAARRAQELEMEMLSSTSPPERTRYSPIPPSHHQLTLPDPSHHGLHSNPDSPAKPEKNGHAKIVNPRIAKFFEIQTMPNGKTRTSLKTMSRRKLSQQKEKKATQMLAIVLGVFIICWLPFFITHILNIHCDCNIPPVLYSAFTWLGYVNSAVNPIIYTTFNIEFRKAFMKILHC

Row | Compound | Ki [1] | Ki [2] | Ki [3] | S2/S1 Ratio [3] | Ki ([3]; read-out: Sigma 2 Ki(nM ± SEM), [^3H]-DTG 1 nM, rat liver crude P2 membrane fraction, 500 nM pentazocine, 2 hours at 25°C) | Ki [4]
1 | COc1ccc2c(c1)N(CC1CCN(CC(O)c3ccc(F)cc3)CC1)S(=O)(=O)c1cc(Cl)ccc1O2 (racemic) [Example 21, (R,S)-1-(4-Fluorophenyl)-2-[4-(3-chloro-8-methoxy-6H-dibenzo[b,f][1,4,5]oxathiazepin-6-ylmethyl)piperidin-1-yl]ethanol S,S-dioxide hydrochloride] | 0.82 µM | 0.42 µM | 9 nM | 0.02 |  | 
2 | O=S1(=O)c2cc(Cl)ccc2Oc2ccccc2N1CC1CCN(CC(O)C23CC4CC(CC(C4)C2)C3)CC1 (racemic) [Example 14, (R,S)-1-(1-Adamantyl)-2-[4-(3-chloro-6H-dibenzo[b,f][1,4,5]oxathiazepin-6-ylmethyl)piperidin-1-yl]ethanol S,S-dioxide hydrochloride] | 0.12 µM | 0.38 µM | 3.1 nM | 0.008 |  | 
3 | COc1ccc(C(O)CN2CCC(CN3c4ccccc4Oc4ccccc4S3(=O)=O)CC2)cc1 (racemic) [Example 12, (R,S)-1-(4-Methoxyphenyl)-2-[4-(6H-dibenzo[b,f][1,4,5]oxathiazepin-6-ylmethyl)piperidin-1-yl]ethanol S,S-dioxide hydrochloride] | 0.28 µM | 0.078 µM | 7.1 nM | 0.09 |  | 
4 | O=C(O)/C=C/C(=O)O.O=S1(=O)c2ccccc2Oc2ccccc2N1CC1CCN(C[C@H](O)C23CC4CC(CC(C4)C2)C3)CC1.O=S1(=O)c2ccccc2Oc2ccccc2N1CC1CCN(C[C@H](O)C23CC4CC(CC(C4)C2)C3)CC1 [Example 10, (R,S)-1-(1-Adamantyl)-2-[4-(6H-dibenzo[b,f][1,4,5]oxathiazepin-6-yl-methyl)piperidin-1-yl]ethanol S,S-dioxide hemi-fumarate] | > 1 µM |  |  | 0.004 | 0.76 nM | 0.2 µM
5 | O=S1(=O)c2ccccc2Nc2ccccc2N1CC1CCN(CC(O)c2ccc(F)cc2F)CC1 (racemic) [Example 3, (R,S)-1-(2,4-Difluorophenyl)-2-[4-(6,11-dihydrodibenzo[c,f][1,2,5]thiadiazepin-6-yl-methyl)piperidin-1-yl]ethanol S,S-dioxide hydrochloride] | 0.7 µM | 0.28 µM | 16 nM | 0.06 |  | 
6 | O=S1(=O)c2cc(Cl)ccc2Oc2ccccc2N1CC1CCN(CC(O)c2ccccc2)CC1 (racemic) [Example 15, (R,S)-1-Phenyl-2-[4-(3-chloro-6H-dibenzo[b,f][1,4,5]oxathiazepin-6-yl-methyl)piperidin-1-yl]ethanol S,S-dioxide hydrochloride] | 0.18 µM | 0.11 µM | 1.3 nM | 0.01 |  | 
7 | O=S1(=O)c2cc(Cl)ccc2Oc2ccccc2N1CC1CCN(CC(O)c2ccc(OC(F)(F)F)cc2)CC1 (racemic) [Example 19, (R,S)-1-(4-Trifluoromethoxyphenyl)-2-[4-(3-chloro-6H-dibenzo[b,f][1,4,5]oxathiazepin-6-ylmethyl)piperidin-1-yl]ethanol S,S-dioxide hydrochloride] | 0.27 µM | 1.2 µM | 8.4 nM | 0.007 |  | 
8 | CN1c2ccccc2N(CC2CCN(CC(O)C34CC5CC(CC(C5)C3)C4)CC2)S(=O)(=O)c2ccccc21 (racemic) [Example 6, (R,S)-1-(1-Adamantyl)-2-[4-(11-methyl-6,11-dihydrodibenzo[c,f][1,2,5]thiadiazepin-6-ylmethyl)piperidin-1-yl]ethanol S,S-dioxide hydrochloride] | 0.17 µM | 2.1 µM | 2.7 nM | 0.001 |  | 
9 | O=S1(=O)c2cc(Cl)ccc2Oc2ccccc2N1CC1CCN(CC(O)c2ccc(F)cc2)CC1 (racemic) [Example 16, (R,S)-1-(4-Fluorophenyl)-2-[4-(3-chloro-6H-dibenzo[b,f][1,4,5]oxathiazepin-6-ylmethyl)piperidin-1-yl]ethanol S,S-dioxide hydrochloride] | 0.21 µM | 0.085 µM | 1.1 nM | 0.01 |  | 
10 | CN(CCCCN1c2ccccc2Oc2ccc(Cl)cc2S1(=O)=O)CC(O)C12CC3CC(CC(C3)C1)C2 (racemic) [Example 23, (R,S)-1-(1-Adamantyl)-2-[N-methyl-N-[4-(3-chloro-6H-dibenzo[b,f][1,4,5]oxathiazepin-6-yl)butyl]amino]ethanol S,S-dioxide hydrochloride] | 1.1 µM | 1.6 µM | 35 nM | 0.02 |  | 
11 | O=S1(=O)c2cc(Cl)ccc2Oc2ccccc2N1CC1CCN(CC(O)c2ccc(C(F)(F)F)cc2)CC1 (racemic) [Example 18, (R,S)-1-(4-Trifluoromethylphenyl)-2-[4-(3-chloro-6H-dibenzo[b,f][1,4,5]oxathiazepin-6-ylmethyl)piperidin-1-yl]ethanol S,S-dioxide hydrochloride] | 0.35 µM | 1.1 µM | 3.2 nM | 0.003 |  | 
12 | O=S1(=O)c2ccccc2Oc2ccccc2N1CC1CCN(CC(O)c2ccc(Cl)cc2)CC1 (racemic) [Example 11, (R,S)-1-(4-Chlorophenyl)-2-[4-(6H-dibenzo[b,f][1,4,5]oxathiazepin-6-ylmethyl)piperidin-1-yl]ethanol S,S-dioxide hydrochloride] | 0.2 µM | 0.043 µM | 2.3 nM | 0.05 |  | 
13 | COc1ccc2c(c1)N(CC1CCN(CC(O)c3ccc(F)cc3)CC1)S(=O)(=O)c1ccccc1O2 (racemic) [Example 22, (R,S)-1-(4-Fluorophenyl)-2-[4-(8-methoxy-6H-dibenzo[b,f][1,4,5]oxathiazepin-6-ylmethyl)piperidin-1-yl]ethanol S,S-dioxide hydrochloride] | 0.87 µM | 0.07 µM | 3.7 nM | 0.05 |  | 
14 | Cc1ccccc1C(O)CN1CCC(CN2c3ccccc3Nc3ccccc3S2(=O)=O)CC1 (racemic) [Example 5, (R,S)-1-(2-Methylphenyl)-2-[4-(6,11-dihydrodibenzo[c,f][1,2,5]thiadiazepin-6-ylmethyl)piperidin-1-yl]ethanol S,S-dioxide hydrochloride] | 0.079 µM | 0.071 µM | 13 nM | 0.2 |  | 
15 | O=S1(=O)c2ccccc2Nc2ccc(Cl)cc2N1CC1CCN(CC(O)C23CC4CC(CC(C4)C2)C3)CC1 (racemic) [Example 8, (R,S)-1-(1-Adamantyl)-2-[4-(8-chloro-6,11-dihydrodibenzo[c,f][1,2,5]thiadiazepin-6-ylmethyl)piperidin-1-yl]ethanol S,S-dioxide hydrochloride] | 0.41 µM | 0.63 µM | 16 nM | 0.03 |  | 
16 | Cc1ccc(C(O)CN2CCC(CN3c4ccccc4Oc4ccccc4S3(=O)=O)CC2)cc1 (racemic) [Example 13, (R,S)-1-(4-Methylphenyl)-2-[4-(6H-dibenzo[b,f][1,4,5]oxathiazepin-6-ylmethyl)piperidin-1-yl]ethanol S,S-dioxide hydrochloride] | 0.18 µM | 0.089 µM | 1.6 nM | 0.02 |  | 
17 | O=C(CN1CCC(CN2c3ccccc3Nc3ccccc3S2(=O)=O)CC1)C12CC3CC(CC(C3)C1)C2 [Example 1, 6-[[1-[2-(1-Adamantyl)-2-oxoethyl]-4-piperidinyl]methyl]-6,11-dihydrodibenzo[c,f][1,2,5]thiadiazepine 5,5-dioxide·hydrochloride] | > 1 µM | 0.15 µM | 5 nM | 0.03 |  | 
18 | CN(CCCCN1c2ccccc2Oc2ccc(Cl)cc2S1(=O)=O)CC(O)c1ccc(F)cc1 (racemic) [Example 24, (R,S)-1-(4-Fluorophenyl)-2-[N-methyl-N-[4-(3-chloro-6H-dibenzo[b,f][1,4,5]oxathiazepin-6-yl)butyl]amino]ethanol S,S-dioxide hydrochloride] | 0.8 µM | 0.14 µM | 19 nM | 0.1 |  | 
19 | CN1c2ccccc2N(CC2CCN(CC(O)c3ccc(F)cc3)CC2)S(=O)(=O)c2ccccc21 (racemic) [Example 7, (R,S)-1-(4-Fluorophenyl)-2-[4-(11-methyl-6,11-dihydrodibenzo[c,f][1,2,5]thiadiazepin-6-ylmethyl)piperidin-1-yl]ethanol S,S-dioxide hydrochloride] | 0.32 µM | 0.54 µM | 4 nM | 0.007 |  | 
20 | COc1ccc2c(c1)N(CC1CCN(CC(O)C34CC5CC(CC(C5)C3)C4)CC1)S(=O)(=O)c1cc(Cl)ccc1O2 (racemic) [Example 20, hydrochloride] | 0.79 µM | 3.5 µM | 10 nM | 0.003 |  | 
21 | O=S1(=O)c2cc(Cl)ccc2Oc2ccccc2N1CC1CCN(CC(O)c2ccc3ccccc3c2)CC1 (racemic) [Example 17, (R,S)-1-(2-Naphthyl)-2-[4-(3-chloro-6H-dibenzo[[b,f][1,4,5]oxathiazepin-6-ylmethyl)piperidin-1-yl]ethanol S,S-dioxide hydrochloride] | 0.35 µM | 0.51 µM | 4.2 nM | 0.008 |  | 
